Reference: US20130295173A1, “COMPOSITIONS OF STATINS AND OMEGA-3 FATTY ACIDS” (OMTHERA PHARMACEUTICALS, INC., priority 2012, published 2013)
Blank lines part the entries; values can stand above or below the compound they belong to.

Key:
[1] = Comparison of solubility of statins in PUFA free acid solvent system and Lovaza ethyl ester solvent system, HPLC assay of supernatant
Description: For this study, ten vials were prepared such that 5 vials contained 2 mL of Lovaza oil and 5 vials contained 2 mL of PUFA free acid solvent system. About 20 mg of each statin were added to one Lovaza oil vial and to one PUFA free acid solvent system vial. Vials containing the samples were blanketed with nitrogen, then sealed. The vials were then sonicated for 1 hour or until contents appeared clear. After sonication, vials which remained clear received additional 20 mg aliquots of their respective statin and were again blanketed with nitrogen. […] The samples were centrifuged and the supernatant was assayed for the respective statin by HPLC.

[2] = Stability testing of statins dissolved in PUFA free acid solvent system; type: physicochemical; conditions: 25° C., 60% RH; for Statin in Oil: PUFA free acid solvent system; for Statin in Oil, Percent: share of total statin
Description: The compositions were then mixed until full dissolution was observed, using a magnetic stir bar and sonication for 30-60 second intervals, taking care to maintain a nitrogen headspace over the solution throughout processing. […] Vials were covered with foil to protect from light and stored at 25° C., 60% RH. One vial of each of the three compositions was retrieved at each timepoint for testing. Procedures as listed in the USP Monograph for Omega-3-Acid Ethyl Ester Capsules were followed for measuring quantities of acid value, peroxide value, and absorbance for fats and fixed oils.

[3] = Solubility of statins in various pH buffers
[4] = Initial solubility of statins in PUFA free acid solvent system (batch #37225); type: physicochemical

- Solubility in Lovaza (ethyl ester) Solvent System [1]: 0.000 mg/g
- Solubility in PUFA Free Acid Solvent System [1]: 42.357 mg/g
- Appearance of vial after sonication ([1]; PUFA free acid solvent, 2 mL, after the addition of about 313 mg): still remained clear
SMILES: CC[C@H](C)C(=O)O[C@H]1C[C@H](O)C=C2C=C[C@H](C)[C@H](CC[C@@H](O)C[C@@H](O)CC(=O)O)[C@H]21 [Pravastatin Sodium, pravastatin sodium]

- Solubility in Lovaza (ethyl ester) Solvent System [1]: 0.615 mg/g
- Solubility in PUFA Free Acid Solvent System [1]: 12.771 mg/g
SMILES: O=C([O-])C[C@H](O)C[C@H](O)/C=C/c1c(C2CC2)nc2ccccc2c1-c1ccc(F)cc1.O=C([O-])C[C@H](O)C[C@H](O)/C=C/c1c(C2CC2)nc2ccccc2c1-c1ccc(F)cc1.[Ca+2] [Pitavastatin Calcium, pitavastatin calcium]

- Statin in Oil ([2]; t = 0): 8.738 mg/g
- Statin in Oil, Percent ([2]; t = 0): 100%
- Statin in Oil ([2]; t = 1 week): 8.275 mg/g
- Statin in Oil, Percent ([2]; t = 1 week): 100%
- Statin in Oil ([2]; t = 2 week): 7.839 mg/g
- Statin in Oil, Percent ([2]; t = 2 week): 100%
SMILES: CC(C)c1c(C(=O)Nc2ccccc2)c(-c2ccccc2)c(-c2ccc(F)cc2)n1CC[C@@H](O)C[C@@H](O)CC(=O)[O-].CC(C)c1c(C(=O)Nc2ccccc2)c(-c2ccccc2)c(-c2ccc(F)cc2)n1CC[C@@H](O)C[C@@H](O)CC(=O)[O-].[Ca+2] [Atorvastatin Calcium, atorvastatin calcium]

- Statin in Oil ([2]; t = 0): 6.481 mg/g
- Statin in Oil, Percent ([2]; t = 0): 100%
- Statin in Oil ([2]; t = 1 week): 6.416 mg/g
- Statin in Oil, Percent ([2]; t = 1 week): 100%
- Statin in Oil ([2]; t = 2 week): 6.505 mg/g
- Statin in Oil, Percent ([2]; t = 2 week): 100%
- Solubility ([3]; 0.1N HCl (pH 1.2), T = 0): 0.223
- Solubility ([3]; 0.1N HCl (pH 1.2), T = 1 Week): 0.104
- Solubility ([3]; 0.1N NaOH, T = 0): 8.058
- Solubility ([3]; 0.1N NaOH, T = 1 Week): 0.018
- Solubility ([3]; Water, T = 0 (after sitting overnight)): 7.08
- Solubility ([3]; Water, T = 1 Week): 8.822
- pH of maximal solubility ([3]; aqueous pH buffers): ~7.0
- Aqueous solubility (in words) ([3]; overall across aqueous solutions, rosuvastatin at time zero): significant aqueous solubility
- Solubility ([3]; pH 2.2 acid phthalate buffer, T = 0): 0.773
- Solubility ([3]; pH 2.2 acid phthalate buffer, T = 1 Week): 9.343
- Solubility ([3]; pH 4.0 acid phthalate buffer, T = 0): 1.901
- Solubility ([3]; pH 4.0 acid phthalate buffer, T = 1 Week): 0.002
- Solubility ([3]; pH 5.0 neutralized phthalate buffer, T = 0): 4.188
- Solubility ([3]; pH 5.0 neutralized phthalate buffer, T = 1 Week): 4.790
- Solubility ([3]; pH 7.0 phosphate buffer, T = 0): 7.963
- Solubility ([3]; pH 7.0 phosphate buffer, T = 1 Week): 10.654
- Solubility ([3]; pH 9.0 alkaline borate buffer, T = 0): 4.571
- Solubility ([3]; pH 9.0 alkaline borate buffer, T = 1 Week): 4.712
- Solubility in Lovaza (ethyl ester) Solvent System [1]: 0.001 mg/g
- Solubility in PUFA Free Acid Solvent System [1]: 12.700 mg/g
- Initial solubility in PUFA free acid solvent system, Concentration [4]: 12.70 mg/mL
SMILES: CC(C)c1nc(N(C)S(C)(=O)=O)nc(-c2ccc(F)cc2)c1/C=C/[C@@H](O)C[C@@H](O)CC(=O)[O-].CC(C)c1nc(N(C)S(C)(=O)=O)nc(-c2ccc(F)cc2)c1/C=C/[C@@H](O)C[C@@H](O)CC(=O)[O-].[Ca+2] [Rosuvastatin Calcium, rosuvastatin calcium]
